In PMC8073976, “Towards Targeted Alpha Therapy with Actinium-225: Chelators for Mild Condition Radiolabeling and Targeting PSMA—A Proof of Concept Study” (Cancers, 2021):

Assays:
[1] = type: physicochemical; details: pH 6
Excerpt: Unfortunately, a suitable reversed-phase iTLC system for the ligands mcp-M-PSMA and mcp-D-PSMA was not found so far to determine the radiochemical yields. The resolution of our standard system was not efficient, most likely due to the bigger size of these molecules compared to the basic chelators, different protonation steps and possible conformational structures. […] Additionally, the stability of the ^225Ac-labeled conjugates in acetate buffer was investigated by HPLC analyses over a period of ten days.
Actinium-225 was purchased as a 0.1 M HCl solution from ITM Munich and used without purification. Stem solutions of all ligands were prepared in concentrations of 10^−2 M and diluted to 10^−6 M using 0.2 M ammonium acetate buffer at pH 6. For concentration-dependent labeling experiments, 10 µL of each ligand stem solution was incubated with 100 kBq of actinium-225 (1–5 µL) and the total volume was adjusted to 100 µL with 0.2 M ammonium acetate buffer at pH 6. For stability analyses, 50 µL of the buffer volume were replaced by 50 µL of 0.2 M ascorbic acid or 50 µL of 2,5-dihydroxy benzoic acid, respectively. […]
All samples were incubated for one hour at room temperature and analyzed afterward. […] Radioactivity was measured in Isomed 2100 dose calibrator. Low radioactivity count rates were determined in Isomed 2160 sodium iodide detector. […]

LNCaP tumor-bearing mice = assay: Biodistribution in LNCaP tumor-bearing SCID mice; type: in vivo, mouse
Excerpt: The SCID male mice (ENVIGO, Indianapolis, IN, USA) 6–8 weeks old were subcutaneously injected into the right flank with 10 × 10^6 LNCaP cells (ATCC, Manassas, VA, USA) mixed with Matrigel Matrix (Corning, Corning, NY, USA) at a 1:1 ratio. The tumor growth was continuously monitored by caliper-based measurements. When the tumor volume reached 200–300 mm^3 (i.e., 5–6 weeks after the inoculation of cells), the mice were used for biodistribution studies. The experimental animals were housed in a specific-pathogen-free animal facility. All experiments with animals were performed in accordance with appropriate legal norms (Czech Law No. 246/1992) and with the approval of the Ministry of Education, Youth and Sports (MSMT-35035/2019-3) and approval of the Ethical Committee of Faculty of Medicine and Dentistry, Palacky University in Olomouc. The number of animals was reduced as much as possible (n = 4 per group and time point) for all in vivo experiments.
For biodistribution studies, the radiotracers were diluted with saline. The prepared radiotracers were applied retro-orbitally (r.o.) to the experimental animals at a dose of 50 kBq per mouse corresponding to 10 pmol of the peptide. The tracer injection was carried out under 2% isoflurane anesthesia (FORANE, Abbott Laboratories, Abbott Park, IL, USA) to minimize animal suffering and to prevent animal motion. The mice were sacrificed by cervical dislocation 10 min, 60 min and 24 h post-injection and organs of interest (blood, spleen, pancreas, stomach, intestine, kidneys, liver, heart, lungs, muscle, bone and tumor) were collected. The samples were weighed and the activity was measured on an automatic gamma counter. The radiotracer accumulation was expressed as a percentage of injected dose per gram (%ID/g) of the corresponding organ.

[2] = 225Ac-labeling of ligands in serial dilution, radiochemical yield and 7-day stability by TLC; type: physicochemical; details: 100 kBq actinium-225, 0.2 M ammonium acetate buffer pH 6, after seven days; for RCY NP (7 d): normal phase TLC, silica, 50 mM EDTA pH 7; for RCY RP (7 d): reversed-phase TLC, Alugram RP-CN, acetonitrile/water 7/3
Method: To compare the efficiency of the synthesized chelators and their conjugates, 100 kBq of actinium-225 were incubated with each ligand at different concentrations (10^−5 M; 10^−6 M; 10^−7 M). The radiochemical yield was determined after one hour of reaction time using normal phase and reversed-phase TLC. Whereas one TLC-system was designed to move free actinium-225 with the solvent front, the other system was developed only to move the actinium-225 labeled complexes. Concentration-dependent radiochemical yields for all ligands and 7-day-longterm yields, which were calculated using both TLC systems, are presented in Table 1.
Actinium-225 was purchased as a 0.1 M HCl solution from ITM Munich and used without purification. Stem solutions of all ligands were prepared in concentrations of 10^−2 M and diluted to 10^−6 M using 0.2 M ammonium acetate buffer at pH 6. For concentration-dependent labeling experiments, 10 µL of each ligand stem solution was incubated with 100 kBq of actinium-225 (1–5 µL) and the total volume was adjusted to 100 µL with 0.2 M ammonium acetate buffer at pH 6. For stability analyses, 50 µL of the buffer volume were replaced by 50 µL of 0.2 M ascorbic acid or 50 µL of 2,5-dihydroxy benzoic acid, respectively. Labeling for cell-binding studies was performed using 1.5 MBq of actinium-225 and 4 nmol of the respective PSMA ligand in a total volume of 400 µL adjusted with 0.2 M ammonium acetate buffer at pH 6. Radiolabeling for cell survival studies and all in vivo experiments were performed using 1.5 MBq of actinium-225 and 3.3 nmol of the respective ligand.
All samples were incubated for one hour at room temperature and analyzed afterward. TLC analyses were carried out in two different systems, normal phase on silica plates in 50 mM EDTA solution (pH 7) and reversed-phase on Alugram RP-CN in acetonitrile/water (7/3). TLC plates were imaged using a phosphoimager Amersham Typhoon 5 Scanner (Cytiva Europe GmbH, Freiburg, Germany) after a decay time of at least 7 h. Analytical HPLC was performed using a Jasco HPLC system with RITA analyzer (Elysia-raytest GmbH, Straubenhardt, Germany) for gamma detection on a Phenomenex Phenyl-Hexyl column in water/acetonitrile (+ 0.1% TFA). Radioactivity was measured in Isomed 2100 dose calibrator. Low radioactivity count rates were determined in Isomed 2160 sodium iodide detector. More precise measurements and nuclide identification were carried out on an activity- and efficiency-calibrated HPGe detector CryoPulse 5 (Canberra).

LNCaP cells [3] = assay: Colony formation assay; type: cell-based, human; details: for Percentage amount of colonies referred to the non-radioactive control: 8 days colony growth
Method: LNCaP cells were plated in 6-well cell culture microplates (Greiner Bio-One GmbH, Frickenhausen, Germany) at a density of 6 × 10^3 cells/2 mL/well. […] After 1 or 4 h of incubation, the cell culture media was removed and fresh media was added to each well. Plates were then incubated at 37 °C for 8 days and re-fed every 3 to 4 days. […] The plates were scanned with an Amersham Typhoon 5 Scanner (Cytiva Europe GmbH, Freiburg, Germany) and the colonies were counted using the Image-Quant TL software (Version 8.1, Cytiva Europe GmbH, Freiburg, Germany).

LNCaP cells [4] = assay: CyQUANT direct cell proliferation assay; type: cell-based, human; details: highest applied dose, 4 h of exposure, cell number 24 h after treatment by DNA staining
Method: The treatment response on cellular proliferation was assessed using the CyQUANT direct cell proliferation assay (Thermo Fisher Scientific, Waltham, MA, USA). For this purpose, LNCaP cells were plated in black 96 well cell culture microplates (Greiner Bio-One GmbH, Frickenhausen, Germany) at a density of 2 × 10^4 cells/0.05 mL/well. […] After 1 or 4 h of incubation, the cell culture media was removed and fresh media was added to each well. Cell numbers were subsequently determined 24 h later as per the manufacturer’s protocol. The fluorescence intensity was measured with the Varioskan Flash microplate reader (Thermo Fisher Scientific, Waltham, MA, USA).

logD7.4 determination = type: physicochemical; details: pH 7.4, 225Ac complex
[5] = 1 h incubation time, 0.05 kBq/mL
[6] = 1 h incubation time, 0.5 kBq/mL
[7] = 4 h incubation time, 0.05 kBq/mL
[8] = 4 h incubation time, 0.5 kBq/mL
[9] = LNCaP tumor-bearing SCID mice, 24 h p.i.

| SMILES | RCY NP (7 d) ([2]; ligand 10^−5 M) | RCY NP (7 d) ([2]; ligand 10^−6 M) | RCY NP (7 d) ([2]; ligand 10^−7 M) | RCY RP (7 d) ([2]; ligand 10^−5 M) | RCY RP (7 d) ([2]; ligand 10^−6 M) | RCY RP (7 d) ([2]; ligand 10^−7 M) | further results |
| --- | --- | --- | --- | --- | --- | --- | --- |
| O=C(O)CC[C@H](NC(=O)N[C@H](CCCCNC(=O)[C@@H](Cc1ccc2ccccc2c1)NC(=O)C1CCC(CNC(=O)CCCCn2cc(COc3cc(CN4CCOCCOCCN(Cc5cccc(C(=O)O)n5)CCOCCOCC4)nc(C(=O)O)c3)nn2)CC1)C(=O)O)C(=O)O (mixture of isomers) [mcp-M-PSMA, (3RS,10RS,14S)-1-((1s,4S)-4-((5-(4-(((2-Carboxy-6-((16-((6-carboxypyridin-2-yl)methyl)-1,4,10,13-tetraoxa-7,16-diazacyclooctadecan-7-yl)methyl)pyridin-4-yl)oxy)methyl)-1H-1,2,3-triazol-1-yl)pentanamido)methyl)cyclohexyl)-3-(naphthalen-2-ylmethyl)-1,4,12-trioxo-2,5,11,13-tetraazahexadecane-10,14,16-tricarboxylic acid] | – | – | – | – | – | – | stable in acetate buffer [1]: at least 48 h |
| O=C(O)CC[C@H](NC(=O)N[C@@H](CCCCNC(=O)[C@H](Cc1ccc2ccccc2c1)NC(=O)[C@H]1CC[C@H](CNC(=O)CCCCn2cc(COc3cc(CN4CCOCCOCCN(Cc5cc(OCc6cn(CCCCC(=O)NC[C@H]7CC[C@H](C(=O)N[C@@H](Cc8ccc9ccccc9c8)C(=O)NCCCC[C@H](NC(=O)N[C@@H](CCC(=O)O)C(=O)O)C(=O)O)CC7)nn6)cc(C(=O)O)n5)CCOCCOCC4)nc(C(=O)O)c3)nn2)CC1)C(=O)O)C(=O)O [[^225Ac]Ac-mcp-D-PSMA, metal not drawn] | 99% | 99% | 95% | – | – | – | Tumor-to-blood ratio (LNCaP tumor-bearing mice; mouse, in vivo): 158.11; tumor-to-muscle ratio (LNCaP tumor-bearing mice; mouse, in vivo): 275.77; inhibition of colony formation (LNCaP cells [3]; 5 and 50 kBq/mL, 4 h): ~100%; Percentage amount of colonies referred to the non-radioactive control (LNCaP cells [3]; [5]): 75.0%; Percentage amount of colonies referred to the non-radioactive control (LNCaP cells [3]; [6]): 3.8%; Percentage amount of colonies referred to the non-radioactive control (LNCaP cells [3]; 1 h incubation time, 5 kBq/mL): 3.1%; Percentage amount of colonies referred to the non-radioactive control (LNCaP cells [3]; 1 h incubation time, 50 kBq/mL): 0.8%; Percentage amount of colonies referred to the non-radioactive control (LNCaP cells [3]; [7]): 49.1%; Percentage amount of colonies referred to the non-radioactive control (LNCaP cells [3]; [8]): 6.2%; Percentage amount of colonies referred to the non-radioactive control (LNCaP cells [3]; 4 h incubation time, 5 kBq/mL): 0.5%; Percentage amount of colonies referred to the non-radioactive control (LNCaP cells [3]; 4 h incubation time, 50 kBq/mL): 0.4%; decrease of relative cell number (LNCaP cells [4]): approximately one third; logD7.4 (logD7.4 determination): −2.5 ± 0.1 |
| O=C(O)CCCCn1cc(COc2cc(CN3CCOCCOCCN(Cc4cccc(C(=O)[O-])n4)CCOCCOCC3)nc(C(=O)[O-])c2)nn1.[225Ac+3] [[^225Ac]Ac-mcp-M-COOH] | 99% | 99% | 99% | 99% | 99% | 96% | – |
| O=C([O-])c1cccc(CN2CCOCCOCCN(Cc3cccc(C(=O)[O-])n3)CCOCCOCC2)n1.[225Ac+3] [[^225Ac]Ac-macropa, reference compound] | 99% | 99% | 99% | 99% | 99% | 99% | – |
| O=C(O)CC[C@H](NC(=O)N[C@@H](CCCCNC(=O)[C@H](Cc1ccc2ccccc2c1)NC(=O)[C@H]1CC[C@H](CNC(=O)CCCCn2cc(COc3cc(CN4CCOCCOCCN(Cc5cccc(C(=O)O)n5)CCOCCOCC4)nc(C(=O)O)c3)nn2)CC1)C(=O)O)C(=O)O [[^225Ac]Ac-mcp-M-PSMA, metal not drawn] | 99% | 99% | 99% | – | – | – | Tumor-to-blood ratio (LNCaP tumor-bearing mice; [9]): 188.42; tumor-to-muscle ratio (LNCaP tumor-bearing mice; [9]): 310.82; Percentage amount of colonies referred to the non-radioactive control (LNCaP cells [3]; [5]): 107.2%; Percentage amount of colonies referred to the non-radioactive control (LNCaP cells [3]; [6]): 91.8%; Percentage amount of colonies referred to the non-radioactive control (LNCaP cells [3]; 1 h incubation time, 5 kBq/mL): 19.4%; Percentage amount of colonies referred to the non-radioactive control (LNCaP cells [3]; 1 h incubation time, 50 kBq/mL): 1.4%; Percentage amount of colonies referred to the non-radioactive control (LNCaP cells [3]; [7]): 116.8%; Percentage amount of colonies referred to the non-radioactive control (LNCaP cells [3]; [8]): 57.2%; Percentage amount of colonies referred to the non-radioactive control (LNCaP cells [3]; 4 h incubation time, 5 kBq/mL): 5.3%; Percentage amount of colonies referred to the non-radioactive control (LNCaP cells [3]; 4 h incubation time, 50 kBq/mL): 0.9%; decrease of relative cell number (LNCaP cells [4]): approximately one third; logD7.4 (logD7.4 determination): −2.8 ± 0.1 |
| C#CCOc1cc(CN2CCOCCOCCN(Cc3cc(OCC#C)cc(C(=O)[O-])n3)CCOCCOCC2)nc(C(=O)[O-])c1.[225Ac+3] [[^225Ac]Ac-mcp-D-click] | 99% | 99% | 50% | 99% | 94% | 40% | – |
| C#CCOc1cc(CN2CCOCCOCCN(Cc3cccc(C(=O)[O-])n3)CCOCCOCC2)nc(C(=O)[O-])c1.[225Ac+3] [[^225Ac]Ac-mcp-M-click] | 99% | 99% | 58% | 99% | 99% | 55% | – |
